Experimental findings from patent US20260001864A1, “COMPOUND CONTAINING SULFAMIDE STRUCTURE, AND PREPARATION METHOD THEREFOR AND APPLICATION THEREOF, AND PHARMACEUTICAL COMPOSITION AND APPLICATION” (Nanjing Shuohui Pharmatechnology Co., Ltd, priority 2021, published 2026) are described below.

Read-outs that look alike come from different tables or passages of the source.

For data set [1], the system named is histamine-induced gastric acid secretion. As to the kind of experiment: Inhibition of histamine-induced gastric acid secretion in rats (pylorus ligation). The format is in vivo, rat. As to conditions: SD rats, total acid over 3 h after histamine. As for the experimental part:
70 SPF-level SD rats with a weight of 180-220 g (Hangzhou Medical College (produced)), randomly grouped by weight, including negative control groups (isovolumetric saline) and model control groups (isovolumetric saline), and compounds obtained in the foregoing preparation examples of the present invention (i.e., compounds or compound hydrochlorides) (2 mg/kg or 4 mg/kg), 10 rats each group, including 5 males and 5 females. The rats were fasted, but were allowed to drink water for 24 h. After 24 h, the rats were given the compound at 1 ml/100 g by gavage, once in each group, and the rats in the negative control groups and the model groups were given an equal volume of saline by gavage. After that, the rats were anesthetized with chloral hydrate 300 mg/kg (1 ml/100 g) and fixed on a rat plate, and the abdominal wall was incised along the abdominal midline from the subxiphoid process of the sternum, and the incision was approximately 2-3 cm and was made on the left costal margin, and the stomach was exposed to the incision by gently pushing it with the fingers upwards. The pylorus was ligated with a thread under the pylorus (other neighboring vessels were not ligated), and the abdominal wall incision was sutured. The animals were given histamine dihydrochloride (30 mg/10 ml/kg) subcutaneously after 1 h of gavage of the test compound or saline. After 3 h of histamine administration, the rats were asphyxiated with excess CO2, stomachs were removed, stomach contents were collected and centrifuged at 3000 rpm/min for 10 min, and the acid solution was titrated with 0.1 mol/L NaOH to pH7.0. The total acidity and acid inhibition rate during the 3 h period were calculated.
Acid inhibition rate (%)=(Total acid in the model group−total acid in the test group)/total acid in the model group×100%

For data set [2], the target named is H+/K+-ATPase (rabbit gastric mucosal microsomes) (Oryctolagus cuniculus (Rabbit), UniProt P27112). In words: In vitro screening test of H+/K+-ATPase inhibition (malachite green). Format: biochemical. The settings on record: pH 6.5, 37° C. 30 min, read-out: IC50, inhibitory effect on H+/K+-ATPase activity. The source says: This test example evaluates the inhibitory effects of the compounds of the present invention on the activity of H+/K+-ATPase by an in vitro screening test, and expresses them with the IC50 values of the compounds (obtained by calculating the inhibition rates at different concentrations).
• Compound solutions: The products (i.e., the compounds or the hydrochloride salt of compounds) obtained in the foregoing preparation examples of the present invention were each independently dissolved in DMSO to form solutions at suitable concentrations; • Buffer I: 50 mmol/L HEPEs-Tris, pH=6.5, 5 mmol/L magnesium chloride, […] valinomycin (J&K Scientific Ltd., goods No.: 227304); • Buffer II: 50 mmol/L HEPEs-Tris, pH=6.5, 5 mmol/L magnesium chloride, […] valinomycin, 5 mmol/L potassium chloride; • 5-adenosine triphosphate (ATP, Sigma-Aldrich, goods No.: A2383) solution: Dilute ATP with buffer I to 5 mM; • Malachite green solution: Dissolve 0.12 wt % malachite green (J&K Scientific Ltd., goods No.: 913120) in 2.5 mol/L sulfuric acid, 7.5 wt % ammonium molybdate (J&K Scientific Ltd., goods No.: 128321) and 11% Tween 20(V/V). During use, sulfuric acid, ammonium molybdate and Tween 20 are mixed in a ratio of 100:25:2; • Rabbit gastric mucosal microsomes (rich in H+/K+-ATPase, self-extracted), extracted by sucrose gradient centrifugation: The rabbit stomach was washed with tap water and 3M NaCl solution, respectively, and then the surface water was removed with filter paper. A pre-cooled homogenization buffer (4 ml/g tissue) was added and homogenized for 2-5 min in a tissue homogenizer. After the homogenizing, if there are large tissue particles, they can be removed by centrifugation (600 g, 10 min). The supernatant was then transferred to a clean centrifuge tube and centrifuged at 20,000 g for 30 min, then the supernatant was transferred to a clean centrifuge tube and further centrifuged at 100,000 g for 90 min and the precipitate was collected; the precipitate was suspended in homogenate and blown evenly, and the protein concentration was measured by the Bradford's method and adjusted to 10 mg/ml; 7.5 wt % Ficoll's layering solution was added in equal proportions. After centrifugation at 100,000 g for 60 min, the middle layer (H^+/K^+-ATPase-enriched gastric membranes) was collected in a clean centrifuge tube, diluted with homogenate by 4-5 times, and then centrifuged at 100,000 g for another 90 min, and the precipitate was collected; the precipitate was suspended in homogenate and homogenized in a glass homogenizer, and the protein concentration was measured by the Bradford's method and adjusted to 22.5 mg/ml. It was frozen at −80° C. and stored for future use.
5 μL of rabbit gastric mucosal microsomes (H^+/K^+-ATPase) was added to 45 μL of buffer II, then 5 μL of compound solution was added, and then 5 μL of 5 mM ATP solution was added to start the reaction and pre-react at 37° C. for 30 min. 15 μL of malachite green solution was added to terminate the reaction, balancing was conducted at room temperature for 20 min, and read the optical absorbance at 620 nm.
Meanwhile, the reaction of the same volume was carried out without addition of potassium chloride as a background, which was subtracted when calculating enzymatic activity.

Data set [3] can be described thus: Rat tissue distribution test (oral, LC-MS-MS). Format: in vivo. More on the design: Hepatic drug concentration: unit not given here. The settings on record: for Exposure level (0-4 h): male SD rats; for Exposure level (0-4 h) / Hepatic drug concentration: oral 4 mg/kg; for Kp: male, SD, plasma set to 1, oral 4 mg/kg, read-out: Ratio of exposure level; for Kp / Hepatic drug concentration: rat. As for the experimental part: Three healthy male SD rats (body weight range 220-250 g, Zhejiang Charles River) were taken and assigned into one group (n=3). Compound 48, Compound A9 or comparison compound Vonoprazan were administered orally at a dose of 4 mg/kg.
Solvent for preparing pharmaceutical preparations: Pure water. The rats were fasted 4 h prior to the administration. […] The tissue was homogenized, and the corresponding blank tissue was used for preparation of a calibration curve and QC quantification. Blood samples should be centrifuged to extract plasma within 1 hour of collection and kept on crushed ice prior to the centrifugation. Plasma samples obtained by centrifugation were stored in a freezer until analysis. Centrifugation conditions: 4-10° C., 8000 rpm, 6 min. The concentration of the sample was determined by LC-MS-MS (MS03: Shimadzu LC30AD and API 4000)), and the exposure data were calculated by WINNOLIN software.

Sequence of H+/K+-ATPase (rabbit gastric mucosal microsomes) (P27112 whole entry): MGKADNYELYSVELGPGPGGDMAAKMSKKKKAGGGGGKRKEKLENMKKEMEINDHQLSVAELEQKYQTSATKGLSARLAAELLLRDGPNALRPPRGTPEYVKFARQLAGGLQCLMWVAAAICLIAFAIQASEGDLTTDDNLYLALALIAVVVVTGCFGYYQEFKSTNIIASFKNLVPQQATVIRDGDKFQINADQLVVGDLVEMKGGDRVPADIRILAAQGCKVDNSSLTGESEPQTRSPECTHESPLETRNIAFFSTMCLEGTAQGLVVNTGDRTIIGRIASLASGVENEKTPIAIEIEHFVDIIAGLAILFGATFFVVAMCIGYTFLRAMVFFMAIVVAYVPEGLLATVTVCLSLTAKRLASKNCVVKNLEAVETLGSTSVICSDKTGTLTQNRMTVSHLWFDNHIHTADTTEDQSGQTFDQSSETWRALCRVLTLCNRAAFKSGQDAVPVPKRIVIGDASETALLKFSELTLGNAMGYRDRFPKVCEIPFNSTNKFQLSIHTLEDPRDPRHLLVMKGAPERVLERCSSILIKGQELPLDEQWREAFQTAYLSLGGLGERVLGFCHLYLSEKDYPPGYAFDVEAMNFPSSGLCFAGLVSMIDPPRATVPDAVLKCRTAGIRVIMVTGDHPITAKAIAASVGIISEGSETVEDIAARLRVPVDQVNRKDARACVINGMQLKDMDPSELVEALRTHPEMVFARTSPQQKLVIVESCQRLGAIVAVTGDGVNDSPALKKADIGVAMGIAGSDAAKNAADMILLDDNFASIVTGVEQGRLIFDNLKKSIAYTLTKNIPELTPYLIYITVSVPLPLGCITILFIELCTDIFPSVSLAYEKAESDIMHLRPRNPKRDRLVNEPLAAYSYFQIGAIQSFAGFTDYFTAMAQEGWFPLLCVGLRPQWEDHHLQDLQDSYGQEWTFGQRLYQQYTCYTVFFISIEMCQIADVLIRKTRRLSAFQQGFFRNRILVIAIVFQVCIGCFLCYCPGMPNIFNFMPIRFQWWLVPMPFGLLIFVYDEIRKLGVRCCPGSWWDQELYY
Sequence of H+/K+-ATPase (rabbit gastric mucosal microsomes) (P18597 whole entry partner): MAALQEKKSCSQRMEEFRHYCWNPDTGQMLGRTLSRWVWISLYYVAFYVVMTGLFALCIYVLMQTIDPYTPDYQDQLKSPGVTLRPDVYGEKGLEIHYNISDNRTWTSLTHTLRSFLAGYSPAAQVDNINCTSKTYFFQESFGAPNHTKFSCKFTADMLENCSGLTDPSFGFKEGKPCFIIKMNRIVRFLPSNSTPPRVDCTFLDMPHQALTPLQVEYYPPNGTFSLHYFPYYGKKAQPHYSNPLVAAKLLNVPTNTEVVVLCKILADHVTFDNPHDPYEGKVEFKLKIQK

In data set [1] (2 mg/kg by gavage), `CNCc1cc(-c2ccc(OCC3CCOCC3)cc2F)n(S(=O)(=O)c2cccnc2)c1` [Compound 6] showed an Acid inhibition rate of 48%. In addition, the IC50 in data set [2] came out at 149 nM.
In the same order, the values of `CNCc1cc(-c2ccc(OC(C)C3CCOCC3)cc2F)n(S(=O)(=O)c2cccnc2)c1` (stereo not drawn) [Compound 8] are 71% and 72.1 nM.
In the same order, the values of `CNCc1cc(-c2ccc(OCC3CCOCC3)cc2F)n(S(=O)(=O)c2cccc(C#N)c2)c1` [Compound 28] are 71% and 30.8 nM.
In turn, `CNCc1cc(-c2ccc(OC(C)C3CCOCC3)cc2F)n(S(=O)(=O)c2cccc(OCCCOC)c2)c1` (stereo not drawn) [Compound 37] had an Acid inhibition rate in data set [1] (2 mg/kg by gavage) of 56%. For the same compound, the IC50 in data set [2] came to 157 nM.
As to `CNCc1cn(S(=O)(=O)c2cccnc2)c(-c2ccc(OCC3CC3)cc2F)c1OC` [Compound 48, 1-(5-(4-(cyclopropylmethoxy)-2-fluorophenyl)-4-methoxy-1-(pyridin-3-ylsulfonyl)-1H-pyrrolo-3-yl)-N-methylmethylamine], the Acid inhibition rate in data set [1] (2 mg/kg by gavage) amounted to 75%; in data set [1] (4 mg/kg by gavage) it was 86%. In data set [2], the IC50 came out at 36 nM. The figures for the “Exposure level (0-4 h)” value in data set [3] (liver), in data set [3] (plasma) and in data set [3] (stomach) were 7585.5 ng·h/mL, 85.8 ng·h/mL and 14693.7 ng·h/mL, respectively. Also, the Kp came out at 88.4 in data set [3] (liver), 1 in data set [3] (plasma) and 171 in data set [3] (stomach).
In the case of `CNCc1cc(-c2ccc(OC(C)c3c(F)cccc3F)cc2F)n(S(=O)(=O)c2cccnc2)c1` (stereo not drawn) [Compound 67], the Acid inhibition rate in data set [1] (2 mg/kg by gavage) is listed as 64%. In data set [2], the IC50 amounted to 41 nM.
In the same order, the values of `CNCc1cc(-c2ccc(OCc3cccnc3F)cc2F)n(S(=O)(=O)c2cccnc2)c1` [Compound A1] are 68% and 66.7 nM.
For `CNCc1cc(-c2ccc(OCc3cnn(C)c3)cc2F)n(S(=O)(=O)c2cccnc2)c1` [Compound A3], the Acid inhibition rate in data set [1] (2 mg/kg by gavage) is 65%. In data set [2], the IC50 is 51.6 nM.
Regarding `CNCc1cc(-c2ccc(OCc3cccnn3)cc2F)n(S(=O)(=O)c2cccnc2)c1` [Compound A7], the Acid inhibition rate in data set [1] (2 mg/kg by gavage) turned out to be 53%.
As to `CNCc1cc(-c2ccc(OCc3ccn(C)n3)cc2F)n(S(=O)(=O)c2cccnc2)c1` [Compound A8], the Acid inhibition rate in data set [1] (2 mg/kg by gavage) is 58%. The IC50 in data set [2] was found to be 18.4 nM.
Consider `CNCc1cc(-c2ccc(OCC3CC3(F)F)cc2F)n(S(=O)(=O)c2cccnc2)c1` (stereo not drawn) [Compound A10], for which the Acid inhibition rate is 81% in data set [1] (2 mg/kg by gavage) and 87% in data set [1] (4 mg/kg by gavage). Besides, in data set [2], the IC50 is 27.7 nM.
The compound `CNCc1cc(-c2ccc(OCC3CO3)cc2F)n(S(=O)(=O)c2cccnc2)c1` (stereo not drawn) [Compound A11] gave an Acid inhibition rate in data set [1] (2 mg/kg by gavage) of 81%. Moreover, the IC50 in data set [2] amounted to 14.1 nM.
As for `CNCc1cc(-c2ccc(OCC3COC3)cc2F)n(S(=O)(=O)c2cccnc2)c1` [Compound A12], in data set [1] (2 mg/kg by gavage), the Acid inhibition rate is 63%. Further, in data set [2], the IC50 is 119 nM.
In turn, `CNCc1cc(-c2ccc(OCC3CCOC3)cc2F)n(S(=O)(=O)c2cccnc2)c1` (stereo not drawn) [Compound A13] had an Acid inhibition rate in data set [1] (2 mg/kg by gavage) of 60%. Also, in data set [2], the IC50 turned out to be 128 nM.
Compound `CNCc1cc(-c2ccc(OCC3CCCO3)cc2F)n(S(=O)(=O)c2cccnc2)c1` (stereo not drawn) [Compound A14] had an Acid inhibition rate in data set [1] (2 mg/kg by gavage) of 63%.
The same measure, in the same setting: as for `CNCc1cc(-c2ccc(OCC3CCO3)cc2F)n(S(=O)(=O)c2cccnc2)c1` (stereo not drawn) [Compound A15], the figure is 64%.
On to `CNCc1cc(-c2ccccc2F)n(S(=O)(=O)c2cccnc2)c1` [Vonoprazan, reference compound], for which the Hepatic drug concentration in data set [3] (liver, 15 min) is on record as 9919; in data set [3] (liver, 1 h), 1192; in data set [3] (liver, 2 h), 632; in data set [3] (liver, 4 h) it was 162; in data set [3] (liver, 24 h), 23.7.
